Data taken from patent publication US20240417398A1, “TETRAHYDRONAPTHYRIDINE AND RELATED ANALOGS FOR INHIBITING YAP/TAZ-TEAD” (SpringWorks Therapeutics, Inc., priority 2023, published 2024).

Assays:
Assay type in all cases: cell-based
[1] = tested on: YAP/TAZ-TEAD transcription; assay: Reporter gene assay for measuring the inhibition of YAP/TAZ-TEAD transcription (TEAD-responsive element luciferase reporter, Hek293T cells); conditions: Homo sapiens, HEK-293T, 24 h, Hek293T cells transfected with TEAD-responsive element luciferase reporter, 24 hours incubation
Method in brief: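 HEK293T cells transiently transfected with a TEAD-responsive luciferase reporter are plated on compounds and incubated 24 h at 37 °C/5% CO2, then read with SteadyLite luminescence. Percent inhibition is normalised to vehicle (0%) and a positive-control inhibitor (100%); IC50 is derived from these values.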

NCI-H226 = assay: Mesothelioma cell line proliferation assay (ATPlite), NCI-H226; conditions: Homo sapiens, 144 h; NCI-H226 cells, 6 days with compound, ATPlite cell viability
Description: (§1) Mesothelioma cell lines, NCI-H226 and NCI-H2052 (both sourced from the ATCC cell culture collection) were plated in 96-well plates (Corning® 96 Well White Polystyrene Microplate clear flat bottom, white polystyrene (TC-Treated)), at 1500 cells/well in full medium (RPMI 1640 ATCC modification with L-glutamine, HEPES, Phenol Red, Sodium Pyruvate, High glucose, Low sodium bicarbonate and 10% fetal bovine serum). Cells were incubated overnight at 37° C. in an incubator with 5% CO2. Then compounds, dissolved in DMSO, were added in dose-response. Cells were incubated with compound dilutions for another 6 days at 37° C. in an incubator with 5% CO2. Cell viability was quantitated using the ATPlite kit (Perkin-Elmer) and the luminescence was read-out using an Envision instrument (Perkin-Elmer). The amount of relative light units produced using the ATPlite kit was used to calculate percent of inhibition.
(§2) The activities of some example compounds are depicted in Table 4. The activity ranges A, B and C refer to EC50 values in the mesothelioma cell line proliferation assay as described as follows: “A”: EC50<1 μM; “B”: 1 μM≤EC50<10 μM and “C”: EC50>10 μM; NT: not tested.

NCI-H2052 = assay: Mesothelioma cell line proliferation assay (ATPlite), NCI-H2052; conditions: Homo sapiens, 144 h; NCI-H2052 cells, 6 days with compound, ATPlite cell viability
Description: as §1, §2

C=CC(=O)NCC1Cc2c(OCc3cc(=O)[nH]c(=O)n3C)cccc2N(c2ccc(C(F)(F)F)cc2)C1 (stereo not drawn) [Cpd. No. 14, N-((5-((3-methyl-2,6-dioxo-1,2,3,6-tetrahydropyrimidin-4-yl)methoxy)-1-(4-(trifluoromethyl)phenyl)-1,2,3,4-tetrahydroquinolin-3-yl)methyl)acrylamide]
< 1 µM: IC50 [1] | EC50 (NCI-H226) | EC50 (NCI-H2052)

CC(=O)NCC1Cc2ncccc2N(c2ccc(C(F)(F)F)cc2)C1 (stereo not drawn) [Cpd. No. 12, N-((1-(4-(trifluoromethyl)phenyl)-1,2,3,4-tetrahydro-1,5-naphthyridin-3-yl)methyl)acetamide]
< 1 µM: IC50 [1] | EC50 (NCI-H226) | EC50 (NCI-H2052)

C=CC(=O)NCC1Cc2c(OCc3cc(=O)[nH]c(=O)[nH]3)cccc2N(c2ccc(C(F)(F)F)cc2)C1 (stereo not drawn) [Cpd. No. 4, N-((5-((2,6-dioxo-1,2,3,6-tetrahydropyrimidin-4-yl)methoxy)-1-(4-(trifluoromethyl)phenyl)-1,2,3,4-tetrahydroquinolin-3-yl)methyl)acrylamide]
< 1 µM: IC50 [1] | EC50 (NCI-H226) | EC50 (NCI-H2052)

CC(=O)NCC1Cc2nc(C)ccc2N(c2ccc(C(F)(F)F)cc2)C1 (stereo not drawn) [Cpd. No. 26, N-((6-methyl-1-(4-(trifluoromethyl)phenyl)-1,2,3,4-tetrahydro-1,5-naphthyridin-3-yl)methyl)acetamide]
< 1 µM: IC50 [1] | EC50 (NCI-H226) | EC50 (NCI-H2052)
